Results from US8741892B2, “Compounds” (Boehringer Ingelheim International GmbH, priority 2011, dated 2014).

These compounds were tested against T1, human recombinant mGluR5 (Homo sapiens, UniProt P41594) (assay: positive modulation of mGluR5, calcium based FLIPR assay). Details: HEK 293 cell line expressing human recombinant mGluR5; EC50 of the modulation from peak Ca fluorescence signal after glutamate at approx. 5% basal stimulation.
T1 construct: expressed in transfected cells; host or cells: HEK 293
T1 sequence (P41594 21-1212): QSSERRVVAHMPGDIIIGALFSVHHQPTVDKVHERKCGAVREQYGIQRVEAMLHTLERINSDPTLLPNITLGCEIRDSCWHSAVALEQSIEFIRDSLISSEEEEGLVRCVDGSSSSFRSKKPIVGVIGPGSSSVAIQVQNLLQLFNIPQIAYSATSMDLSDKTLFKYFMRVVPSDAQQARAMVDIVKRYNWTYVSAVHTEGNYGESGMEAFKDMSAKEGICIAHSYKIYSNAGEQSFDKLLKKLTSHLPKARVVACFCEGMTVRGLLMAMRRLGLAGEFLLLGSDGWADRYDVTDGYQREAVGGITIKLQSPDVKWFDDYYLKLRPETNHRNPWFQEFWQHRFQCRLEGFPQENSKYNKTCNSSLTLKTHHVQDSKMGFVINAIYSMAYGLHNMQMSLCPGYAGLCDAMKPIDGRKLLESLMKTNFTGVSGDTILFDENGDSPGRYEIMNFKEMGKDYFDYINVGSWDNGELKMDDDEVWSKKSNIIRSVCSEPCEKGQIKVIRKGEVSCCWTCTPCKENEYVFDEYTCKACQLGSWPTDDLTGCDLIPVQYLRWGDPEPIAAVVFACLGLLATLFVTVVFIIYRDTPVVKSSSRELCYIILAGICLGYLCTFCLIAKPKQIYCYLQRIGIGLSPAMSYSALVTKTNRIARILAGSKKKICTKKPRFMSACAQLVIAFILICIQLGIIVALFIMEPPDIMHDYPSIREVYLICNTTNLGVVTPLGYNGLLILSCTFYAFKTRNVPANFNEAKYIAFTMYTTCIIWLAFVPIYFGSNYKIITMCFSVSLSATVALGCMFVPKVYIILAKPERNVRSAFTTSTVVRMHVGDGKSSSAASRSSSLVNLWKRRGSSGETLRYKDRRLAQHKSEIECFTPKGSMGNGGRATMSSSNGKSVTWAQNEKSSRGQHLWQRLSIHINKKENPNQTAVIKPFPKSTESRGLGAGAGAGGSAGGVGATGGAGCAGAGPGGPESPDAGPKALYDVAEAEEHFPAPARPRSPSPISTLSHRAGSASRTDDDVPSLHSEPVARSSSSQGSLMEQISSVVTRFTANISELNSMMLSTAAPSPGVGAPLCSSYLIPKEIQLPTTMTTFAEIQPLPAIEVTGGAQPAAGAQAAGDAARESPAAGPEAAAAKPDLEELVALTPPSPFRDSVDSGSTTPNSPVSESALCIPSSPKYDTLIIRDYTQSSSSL
Outline: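 HEK 293 cells expressing human recombinant mGluR5, Calcium-4 dye-loaded in Ringer solution pH 7.4. Compound (1% DMSO final) preincubated 5 min, then glutamate at ~5% of maximal effect added; peak Ca2+ fluorescence gives EC50 by nonlinear regression, normalized to DMSO (100%) and 10 μM CDPPB (200%) controls.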
An EC50 of 28 nM was found for COc1cc(C2=CCN(C(=O)Cn3nc(-c4ccc(C)c(C)c4)cc3-c3ccccc3)CC2)ncn1 [Example 7.02.087] in this work. An EC50 of 254 nM was found for COc1cnc(C2CCN(C(=O)Cn3nc(-c4ccc(C)c(C)c4)cc3-c3ccccc3)CC2)nc1 [Example 7.02.088] in this work. An EC50 of 59 nM was found for COc1cnc(C2CCN(C(=O)Cn3nc(-c4ccc(C)c(C)c4)cc3-c3ccccc3)CC2)nc1 [Example 7.02.089] in this work. An EC50 of 41 nM was found for Cc1nc2c(s1)CN(C(=O)Cn1nc(-c3ccc(C)c(C)c3)cc1-c1ccccc1)C2 [Example 7.02.090] in this work. An EC50 of 115 nM was found for COc1cc(C2CCN(C(=O)Cn3nc(-c4ccc(C)c(C)c4)cc3-c3ccccc3)CC2)ncn1 [Example 7.02.091] in this work. An EC50 of 369 nM was found for CCc1cc(-c2ccc(C)c(C)c2)nn1CC(=O)N1CCC(c2cc(OC)ncn2)CC1 [Example 7.02.092] in this work. An EC50 of 120 nM was found for CCc1cc(-c2cccc(C)c2)nn1CC(=O)N1CC=C(c2cc(OC)ncn2)CC1 [Example 7.02.093] in this work. An EC50 of 49 nM was found for Cc1ccc(-c2cc(-c3ccccc3)n(CC(=O)N3CCc4nc(N)sc4CC3)n2)cc1C [Example 7.02.094] in this work. An EC50 of 6 nM was found for Cc1nnc(N2CCN(C(=O)Cn3nc(-c4ccc(F)c(C)c4)cc3-c3ccccc3)CC2)o1 [Example 7.02.095] in this work. An EC50 of 10 nM was found for Cc1cc(C2=CCN(C(=O)Cn3nc(-c4ccc(F)c(C)c4)cc3-c3ccccc3)CC2)ncn1 [Example 7.02.096] in this work. An EC50 of 8 nM was found for Cc1nc2c(o1)CN(C(=O)Cn1nc(-c3ccc(F)c(C)c3)cc1-c1ccccc1)CC2 [Example 7.02.097] in this work. An EC50 of 12 nM was found for Cc1cnc(C2CCN(C(=O)Cn3nc(-c4ccc(F)c(C)c4)cc3-c3ccccc3)CC2)o1 [Example 7.02.098] in this work. An EC50 of 18 nM was found for Cc1cc(-c2cc(-c3ccccc3)n(CC(=O)N3CC=C(c4ncc(F)cn4)CC3)n2)ccc1F [Example 7.02.099] in this work. An EC50 of 4 nM was found for Cc1cnc(C2=CCN(C(=O)Cn3nc(-c4ccc(F)c(C)c4)cc3-c3ccccc3)CC2)o1 [Example 7.02.100] in this work. An EC50 of 14 nM was found for COc1cnc(C2=CCN(C(=O)Cn3nc(-c4ccc(F)c(C)c4)cc3-c3ccccc3)CC2)nc1 [Example 7.02.101] in this work. An EC50 of 27 nM was found for Cc1cnc(C2=CCN(C(=O)Cn3nc(-c4ccc(F)c(C)c4)cc3-c3ccccc3)CC2)nc1 [Example 7.02.102] in this work. An EC50 of 34 nM was found for COCCCc1cc(-c2ccc(F)c(C)c2)nn1CC(=O)N1CCc2nc(C)sc2CC1 [Example 7.02.103] in this work. An EC50 of 48 nM was found for COCCCc1cc(-c2ccc(F)c(C)c2)nn1CC(=O)N1CCc2nc(N)sc2CC1 [Example 7.02.104] in this work. An EC50 of 242 nM was found for COCCCc1cc(-c2ccc(F)c(C)c2)nn1CC(=O)N1Cc2nc(C)sc2C1 [Example 7.02.105] in this work. An EC50 of 10 nM was found for Cc1nc2c(o1)CCN(C(=O)Cn1nc(-c3ccc(F)c(C)c3)cc1-c1ccccc1)CC2 [Example 7.02.106] in this work. An EC50 of 39 nM was found for CCc1cc(-c2cccc(Cl)c2)nn1CC(=O)N1CC=C(c2ncc(C)o2)CC1 [Example 7.02.107] in this work. An EC50 of 127 nM was found for CCc1cc(-c2cccc(Cl)c2)nn1CC(=O)N1CCC(c2ncc(C)o2)CC1 [Example 7.02.108] in this work. An EC50 of 61 nM was found for CCc1cc(-c2cccc(Cl)c2)nn1CC(=O)N1CCc2nc(C)sc2CC1 [Example 7.02.109] in this work. An EC50 of 156 nM was found for CCc1cc(-c2cccc(Cl)c2)nn1CC(=O)N1CCc2nc(N)sc2CC1 [Example 7.02.110] in this work. An EC50 of 334 nM was found for CCc1cc(-c2cccc(Cl)c2)nn1CC(=O)N1Cc2nc(C)sc2C1 [Example 7.02.111] in this work. An EC50 of 404 nM was found for CCc1cc(-c2cccc(Cl)c2)nn1CC(=O)N1CCN(c2nnc(C)o2)CC1 [Example 7.02.112] in this work. An EC50 of 637 nM was found for CCc1cc(-c2cccc(Cl)c2)nn1CC(=O)N1CCC(c2nnc(C)o2)CC1 [Example 7.02.113] in this work. An EC50 of 29 nM was found for Cc1nnc(C2=CCN(C(=O)Cn3nc(-c4ccc(C)c(C)c4)cc3-c3ccccc3)CC2)o1 [Example 7.02.114] in this work. An EC50 of 8 nM was found for Cc1nnc(C2=CCN(C(=O)Cn3nc(-c4ccc(F)c(C)c4)cc3-c3ccccc3)CC2)o1 [Example 7.02.115] in this work. An EC50 of 21 nM was found for Cc1ccc(-c2cc(-c3ccccc3)n(CC(=O)N3CCc4nc(C)sc4CC3)n2)nc1 [Example 7.02.116] in this work. An EC50 of 66 nM was found for Cc1ccc(-c2cc(-c3ccccc3)n(CC(=O)N3CCc4nc(N)sc4CC3)n2)nc1 [Example 7.02.117] in this work. An EC50 of 127 nM was found for Cc1ccc(-c2cc(-c3ccccc3)n(CC(=O)N3Cc4nc(C)sc4C3)n2)nc1 [Example 7.02.118] in this work. An EC50 of 12 nM was found for Cc1nc2c(s1)CCN(C(=O)Cn1nc(-c3ccc(F)c(C)c3)cc1CC(C)C)CC2 [Example 7.02.119] in this work. An EC50 of 21 nM was found for Cc1cc(-c2cc(CC(C)C)n(CC(=O)N3CCc4nc(N)sc4CC3)n2)ccc1F [Example 7.02.120] in this work. An EC50 of 49 nM was found for Cc1nc2c(s1)CN(C(=O)Cn1nc(-c3ccc(F)c(C)c3)cc1CC(C)C)C2 [Example 7.02.121] in this work. An EC50 of 38 nM was found for Cc1nc2c(s1)CCN(C(=O)Cn1nc(-c3ccc(C)c(C)n3)cc1-c1ccccc1)CC2 [Example 7.02.122] in this work. An EC50 of 71 nM was found for Cc1ccc(-c2cc(-c3ccccc3)n(CC(=O)N3CCc4nc(N)sc4CC3)n2)nc1C [Example 7.02.123] in this work. An EC50 of 68 nM was found for Cc1nc2c(s1)CN(C(=O)Cn1nc(-c3ccc(C)c(C)n3)cc1-c1ccccc1)C2 [Example 7.02.124] in this work. An EC50 of 253 nM was found for CCc1cccc(-c2cc(CC)n(CC(=O)N3Cc4nc(C)sc4C3)n2)c1 [Example 7.02.125] in this work. An EC50 of 68 nM was found for Cc1nc2c(s1)CCN(C(=O)Cn1nc(-c3cc(C)c(C)cn3)cc1-c1ccccc1)CC2 [Example 7.02.126] in this work. An EC50 of 200 nM was found for Cc1cnc(-c2cc(-c3ccccc3)n(CC(=O)N3CCc4nc(N)sc4CC3)n2)cc1C [Example 7.02.127] in this work. An EC50 of 156 nM was found for CCc1cccc(-c2cc(CC)n(CC(=O)N3CCc4nc(C)sc4CC3)n2)c1 [Example 7.02.129] in this work. An EC50 of 57 nM was found for Cc1cc(-c2cc(-c3ccccc3)n(CC(=O)N3CCc4ccsc4CC3)n2)ccc1F [Example 7.02.130] in this work. An EC50 of 8 nM was found for Cc1cc(-c2cc(-c3ccccc3)n(CC(=O)N3CCc4cccnc4CC3)n2)ccc1F [Example 7.02.131] in this work. An EC50 of 186 nM was found for CCc1cc(-c2cc(C)c(F)c(C)c2)nn1CC(=O)N1CCc2nc(C)sc2CC1 [Example 7.02.132] in this work. An EC50 of 276 nM was found for CCc1cc(-c2cc(C)c(F)c(C)c2)nn1CC(=O)N1CCc2nc(N)sc2CC1 [Example 7.02.133] in this work. An EC50 of 15 nM was found for Cc1cnc(C2=CCN(C(=O)Cn3nc(-c4ccc(F)c(C)c4)cc3-c3ccccc3)CC2)s1 [Example 7.02.134] in this work. An EC50 of 45 nM was found for CCc1cc(-c2ccc(F)c(C)c2)nn1CC(=O)N1CC=C(c2ncc(C)s2)CC1 [Example 7.02.135] in this work. An EC50 of 141 nM was found for COc1cccc(C2=CCN(C(=O)Cn3nc(-c4ccc(F)c(C)c4)cc3-c3ccccc3)CC2)c1 [Example 7.02.136] in this work. An EC50 of 352 nM was found for CCc1cc(-c2ccc(F)c(C)c2)nn1CC(=O)N1CC=C(c2cccc(OC)c2)CC1 [Example 7.02.137] in this work. An EC50 of 44 nM was found for Nc1nc2c(s1)CCN(C(=O)Cn1nc(-c3cccc(Cl)c3)cc1-c1ccccc1)CC2 [Example 7.02.138] in this work. An EC50 of 101 nM was found for Cc1nnc(C2CCN(C(=O)Cn3nc(-c4cccc(Cl)c4)cc3-c3ccccc3)CC2)o1 [Example 7.02.139] in this work. An EC50 of 51 nM was found for Cc1cnc(C2CCN(C(=O)Cn3nc(-c4ccc(F)c(C)c4)cc3-c3ccccc3)CC2)s1 [Example 7.02.140] in this work. An EC50 of 138 nM was found for CCc1cc(-c2ccc(F)c(C)c2)nn1CC(=O)N1CCC(c2ncc(C)s2)CC1 [Example 7.02.141] in this work. An EC50 of 27 nM was found for Cc1cnc(C2=CCN(C(=O)Cn3nc(-c4cccc(Cl)c4)cc3-c3ccccc3)CC2)o1 [Example 7.02.142] in this work. An EC50 of 48 nM was found for Cc1nc2c(s1)CN(C(=O)Cn1nc(-c3cccc(Cl)c3)cc1-c1ccccc1)C2 [Example 7.02.143] in this work. An EC50 of 68 nM was found for Cc1cnc(C2CCN(C(=O)Cn3nc(-c4cccc(Cl)c4)cc3-c3ccccc3)CC2)o1 [Example 7.02.144] in this work. An EC50 of 15 nM was found for Cc1nc2c(s1)CCN(C(=O)Cn1nc(-c3cccc(Cl)c3)cc1-c1ccccc1)CC2 [Example 7.02.145] in this work. An EC50 of 295 nM was found for COc1cccc(C2CCN(C(=O)Cn3nc(-c4ccc(F)c(C)c4)cc3-c3ccccc3)CC2)c1 [Example 7.02.146] in this work. An EC50 of 572 nM was found for CCc1cc(-c2ccc(F)c(C)c2)nn1CC(=O)N1CCC(c2cccc(OC)c2)CC1 [Example 7.02.147] in this work. An EC50 of 15 nM was found for COc1cc(-c2cc(-c3ccccc3)n(CC(=O)N3CCc4nc(C)sc4CC3)n2)ccc1F [Example 7.02.148] in this work. An EC50 of 42 nM was found for COc1cc(-c2cc(-c3ccccc3)n(CC(=O)N3CCc4nc(N)sc4CC3)n2)ccc1F [Example 7.02.149] in this work. An EC50 of 28 nM was found for COc1cc(-c2cc(-c3ccccc3)n(CC(=O)N3Cc4nc(C)sc4C3)n2)ccc1F [Example 7.02.150] in this work. An EC50 of 211 nM was found for COc1cc(-c2cc(-c3ccccc3)n(CC(=O)N3CCC(c4nnc(C)o4)CC3)n2)ccc1F [Example 7.02.151] in this work. An EC50 of 67 nM was found for COc1cc(-c2cc(-c3ccccc3)n(CC(=O)N3CCC(c4ncc(C)o4)CC3)n2)ccc1F [Example 7.02.152] in this work. An EC50 of 15 nM was found for COc1cc(-c2cc(-c3ccccc3)n(CC(=O)N3CC=C(c4ncc(C)o4)CC3)n2)ccc1F [Example 7.02.153] in this work. An EC50 of 108 nM was found for Cc1nc(N2CCN(C(=O)Cn3nc(-c4ccc(F)c(C)c4)cc3C)CC2)no1 [Example 7.02.154] in this work. An EC50 of 92 nM was found for Cc1nc2c(o1)CN(C(=O)Cn1nc(-c3ccc(F)c(C)c3)cc1C)C2 [Example 7.02.155] in this work. An EC50 of 170 nM was found for Cc1cc(-c2cc(-c3ccccc3)n(CC(=O)N3CCc4nc(N)sc4CC3)n2)ncc1F [Example 7.02.156] in this work. An EC50 of 430 nM was found for CCc1cc(-c2ccc(F)c(C)c2)nn1CC(=O)N1CCC(c2nnc(C)o2)CC1 [Example 7.02.157] in this work. An EC50 of 116 nM was found for Cc1csc(N2CCN(C(=O)Cn3nc(-c4ccc(F)c(C)c4)cc3-c3ccccc3)CC2)n1 [Example 7.02.158] in this work. An EC50 of 44 nM was found for Cc1csc(N2CCN(C(=O)Cn3nc(-c4ccc(F)c(C)c4)cc3-c3ccccc3)CC2)n1 [Example 7.02.159] in this work.
